Source: ChEMBL document CHEMBL4354883, “Design, Synthesis, and Biological Evaluation of HSP90 Inhibitor-SN38 Conjugates for Targeted Drug Accumulation” (J Med Chem, 2020)
Active and inactive are the calls of the source. The calls are words filed in the database; no cut-off is given here.

Assays:
HCT-116 [1] = settings: Homo sapiens, 0.2 uM
Description: Downregulation of TOP1 expression in human HCT116 cells at 0.2 uM after 24 hrs by Western blot analysis

Mus musculus [2] = species: Mus musculus; settings: 28 mg/kg
Description: In vivo inhibition of HSP90 in mouse xenografted with human Capan1 cells assessed as decrease in AKT protein expression at 28 mg/kg, iv for every 2 days measured at 2 hrs post last dose by Western blot analysis

A549 [3] = settings: Homo sapiens, 0.2 uM
Description: Downregulation of TOP1 expression in human A549 cells at 0.2 uM after 24 hrs by Western blot analysis

CAPAN-1 [4] = assay: Antiproliferative activity against human Capan1 cells assessed as reduction in cell viability after 72 hrs by SRB assay; type: functional, cell-based; settings: CAPAN-1, 72 h
L02 = assay: Cytotoxicity agains human HL7702 cells assessed as reduction in cell viability after 72 hrs by SRB assay; type: cell-based; settings: L02, 72 h
MIA PaCa-2 = assay: Antiproliferative activity against human MIAPaCa2 cells assessed as reduction in cell viability after 72 hrs by SRB assay; type: functional, cell-based; settings: MIA PaCa-2, 72 h
HCT-116 [5] = assay: Antiproliferative activity against human HCT116 cells assessed as reduction in cell viability after 72 hrs by SRB assay; type: functional, cell-based; settings: HCT-116, 72 h
HCT-116 [6] = assay: Antitumor activity against human HCT116 cells xenografted in mouse assessed as reduction in tumor volume at 50 mg/kg, iv for 5 consecutive days per week and measured every 3 to 4 days up to 14 days by microcaliper analysis relative to control; type: functional
Mus musculus [7] = species: Mus musculus; settings: 28 mg/kg; remark: listed apart in the source
Description: In vivo inhibition of HSP90 in mouse xenografted with human Capan1 cells assessed as increase in HSP70 protein expression at 28 mg/kg, iv for every 2 days measured at 2 hrs post last dose by Western blot analysis

CAPAN-1 [8] = assay: Antitumor activity against human Capan1 cells xenografted in mouse assessed as reduction in tumor volume at 28 mg/kg, iv for every 2 days and measured twice per week by microcaliper method relative to control; type: functional
A549 [9] = assay: Antiproliferative activity against human A549 cells assessed as reduction in cell viability after 72 hrs by SRB assay; type: functional, cell-based; settings: A549, 72 h
CAPAN-1 [10] = settings: Homo sapiens, 28 mg/kg
Description: Antitumor activity against human Capan1 cells xenografted in mouse assessed as reduction in tumor weight at 28 mg/kg, iv for every 2 days and measured twice per week by caliper method

HCT-116 [11] = assay: Downregulation of TOP1 expression in human HCT116 cells after 24 hrs by Western blot analysis; type: functional, cell-based
[12] = Drug uptake in human A549 cells assessed as maximum emission peaks at 430 nm at 5 uM by fluorescence emission spectral analysis; type: ADME, cell-based; settings: a549, 5 µM
[13] = Prodrug release in tumor of mouse xenografted with human Capan1 cells assessed as increase in 7-ethyl-10-hydroxycamptothecin level at 36 mg/kg, iv after 24 hrs by LC-MS/MS analysis; type: ADME, organism-based, Neoplasm; settings: in vivo
Mus musculus [14] = assay: In vivo inhibition of HSP90 in mouse xenografted with human Capan1 cells assessed as increase in HSP70 protein expression at 36 mg/kg, iv for every 2 days measured at 2 hrs post last dose by Western blot analysis; type: functional, organism-based
A549 [15] = assay: Downregulation of TOP1 expression in human A549 cells after 24 hrs by Western blot analysis; type: functional, cell-based
Mus musculus [16] = assay: In vivo inhibition of HSP90 in mouse xenografted with human Capan1 cells assessed as decrease in AKT protein expression at 36 mg/kg, iv for every 2 days measured at 2 hrs post last dose by Western blot analysis; type: functional, organism-based
[17] = Drug uptake in human A549 cells assessed as blue shift in absorption spectrum at 5 uM by UV-visible absorption spectral analysis; type: ADME, cell-based; settings: a549, 5 µM
[18] = Drug uptake in human A549 cells assessed as blue fluorescence at 5 uM after 12 hrs by confocal laser scanning microscopic analysis; type: ADME, cell-based; settings: a549, 12 h
[19] = Prodrug release in mouse plasma xenografted with human HCT116 cells assessed as increase in 7-ethyl-10-hydroxycamptothecin level at 15 mg/kg, iv administered as single dose and measured after 30 mins to 72 hrs by LC-MS/MS analysis; type: ADME, organism-based; settings: in vivo
Mus musculus [20] = assay: In vivo inhibition of topoisomerase 1 in mouse xenografted with human Capan1 cells assessed as increase in phosphorylated KAP1 expression at 36 mg/kg, iv for every 2 days measured at 2 hrs post last dose by Western blot analysis; type: functional, organism-based
Mus musculus [21] = assay: Down regulation of topoisomerase 1 expression in mouse xenografted with human Capan1 cells at 36 mg/kg, iv for every 2 days measured at 2 hrs post last dose by Western blot analysis; type: functional, organism-based
[22] = Prodrug release in tumor of mouse xenografted with human HCT116 cells assessed as increase in 7-ethyl-10-hydroxycamptothecin level at 15 mg/kg, iv administered as single dose by LC-MS/MS analysis; type: ADME, organism-based, Neoplasm; settings: in vivo

## CCNC(=O)c1noc(-c2cc(C(C)C)c(O)cc2O)c1-c1ccc(CN2CCOCC2)cc1 [LUMINESPIB]
HCT-116 [1]
  inhibition: Active
Mus musculus [2]
  inhibition: Active
A549 [3]
  inhibition: Active
CAPAN-1 [4]
  IC50: 657 nM
L02
  IC50: 1360 nM
MIA PaCa-2
  IC50: 38 nM
HCT-116 [5]
  IC50: 121 nM
HCT-116 [6]
  T/C: 49.9%
Mus musculus [7]
  inhibition: Active
CAPAN-1 [8]
  T/C: 57.03%
A549 [9]
  IC50: 39 nM
CAPAN-1 [10]
  inhibition: Active

## CCc1c2c(nc3ccc(OC(=O)N4CCC(N5CCCCC5)CC4)cc13)-c1cc3c(c(=O)n1C2)COC(=O)[C@]3(O)CC [IRINOTECAN]
HCT-116 [11]
  inhibition: Active
[12]
  Drug uptake: Active
[13]
  Drug metabolism: Metabolite_Notdetected
Mus musculus [14]
  inhibition: inactive
A549 [15]
  TOP1 downregulation: Active
CAPAN-1 [4]
  IC50: 1120 nM
L02
  IC50: 1300 nM
Mus musculus [16]
  inhibition: inactive
[17]
  Drug uptake: Active
[18]
  Drug uptake: Not Active
MIA PaCa-2
  IC50: 1330 nM
[19]
  Drug metabolism: Metabolite_Detected
HCT-116 [5]
  IC50: 498 nM
Mus musculus [20]
  inhibition: Active
Mus musculus [21]
  inhibition: Active
A549 [9]
  IC50: 1560 nM
[22]
  Drug metabolism: Metabolite_Detected
